# Laboratory results as given in ChEMBL document CHEMBL5543125, “Discovery of 2,3-Dihydro[1,4]dioxino[2,3-g]benzofuran Derivatives as Protease Activated Receptor 4 (PAR4) Antagonists with Potent Antiplatelet Aggregation Activity and Low Bleeding Tendency” (J Med Chem, 2024).
# Legend:
# Platelet [1] = experiment: Inhibition of platelet aggregation in human platelet rich plasma at 20 uM preincubated for 5 mins followed by aggregation inducer addition and measured after 5 mins by light transmission aggregometry relative to control; assay type: functional; settings: 10 min
# [2] = Metabolic stability in human liver microsomes assessed as half life at 1 uM preincubated for 1 hr followed by NADPH addition and measured upto 60 mins by LC-MS/MS analysis; assay type: ADME, Microsome; settings: time < 120 min
# Platelet [3] = experiment: Inhibition of platelet aggregation in human platelet rich plasma preincubated for 5 mins followed by aggregation inducer addition and measured after 5 mins by light transmission aggregometry; assay type: functional, cell-based
# [4] = Toxicity in C57BL/6J mouse assessed as prolongation of bleeding time at 3 to 12 mg/kg, po administered via oral gavage and measured after 2 hrs; assay type: organism-based; settings: in vivo, dose 3-12 mg/kg
half-life at 1 µM [2] [min],IC50 (Platelet [3]) [nM],Compound,inhibition at 20 µM (Platelet [1]) [%],Activity [4]
–,–,CSc1nn2cc(-c3cc4ccc5c(c4o3)OCCOCCO5)nc2s1,-1.3,–
10.6,10.8,Cc1ccc2nc(-c3cc4ccc5c(c4o3)OCCO5)cn2n1,85,–
15,2.8,[2H]c1cc2c(c3oc(-c4cn5nc(OC)sc5n4)cc13)OCCO2,79.9,–
16.2,18.8,COc1nn2cc(-c3cc4ccc5c(c4o3)OCO5)nc2s1,77.5,–
59.7,18.4,COc1nn2cc(-c3cc4c(Br)cc5c(c4o3)OCCO5)nc2s1,83.1,–
–,18.7,COc1nn2cc(-c3cc4c(C5CC5)cc5c(c4o3)OCCO5)nc2s1,75.6,–
–,–,COc1ccc2nc(-c3cc4ccc5c(c4o3)OCCO5)cn2n1,0,–
–,–,COc1nn2cc(-c3cc4c(Cl)cc5c(c4o3)OCCO5)nc2s1,43.2,–
–,–,c1cnn2cc(-c3cc4ccc5c(c4o3)OCCO5)nc2n1,2.08,–
33,–,COc1nn2cc(-c3cc4c(OCCN5CCOCC5)cc5c(c4o3)OCCO5)nc2s1,78.9,–
–,–,COc1nn2cc(-c3cc4ccc5c(c4o3)OCCCCO5)nc2s1,44.8,–
–,–,COc1nn2cc(-c3cc4c(C(F)(F)F)cc5c(c4o3)OCCO5)nc2s1,5.75,–
–,9.2,COc1nn2cc(-c3cc4c(OCc5csc(N6CCSCC6)n5)cc5c(c4o3)OCCO5)nc2s1,82.1,–
–,–,FC(F)(F)c1nn2cc(-c3cc4ccc5c(c4o3)OCCO5)nc2s1,3.89,–
–,–,COc1nn2cc(-c3cc4cc5c(cc4o3)OCCO5)nc2s1,88.4,–
–,–,COC(=O)[C@H](c1ccccc1Cl)N1CCc2sccc2C1 [CLOPIDOGREL],–,Toxic
11.1,–,CSc1nn2cc(-c3cc4ccccc4o3)nc2s1,81,–

half-life at 1 µM [2] [min],IC50 (Platelet [3]) [nM],Compound,inhibition at 20 µM (Platelet [1]) [%],Activity [4]
–,–,COc1nn2cc(-c3cc4c(OCc5ccccc5)cc5c(c4o3)OCCO5)nc2s1,7.4,–
–,–,COc1nn2cc(-c3cc4c(N5CCOCC5)cc5c(c4o3)OCCO5)nc2s1,37.1,–
14.8,9.2,COc1nn2cc(-c3cc4c(OCc5nc(N6CCOCC6)sc5C)cc5c(c4o3)OCCO5)nc2s1,85.2,–
–,–,COc1nn2cc(-c3cc4ccc5ccccc5c4o3)nc2s1,8.27,–
16.1,–,COc1nn2cc(-c3cc4c(OCC(=O)N5CCC(F)(F)CC5)cc5c(c4o3)OCCO5)nc2s1,75.4,–
–,–,COc1nn2cc(-c3cc4c(OCC(=O)N5CCN(C(C)=O)CC5)cc5c(c4o3)OCCO5)nc2s1,15.1,–
–,17.8,COc1nn2cc(-c3cc4ccc5c(c4o3)CCO5)nc2s1,83.7,–
–,–,COc1nn2cc(-c3cc4ccc5c(c4o3)CCCO5)nc2s1,1.14,–
–,–,COc1nn2cc(-c3cc4c(OCc5csc(-c6ccc(C(F)(F)F)cc6)n5)cc5c(c4o3)OCCO5)nc2s1,6.57,–
–,–,COc1nn2cc(-c3cc4c(OCCN5CCS(=O)(=O)CC5)cc5c(c4o3)OCCO5)nc2s1,-4.63,–
–,–,COCCCc1cc2c(c3oc(-c4cn5nc(OC)sc5n4)cc13)OCCO2,4.17,–
–,–,COc1nn2cc(-c3cc4c(-c5ccc(C)cc5)cc5c(c4o3)OCCO5)nc2s1,-0.13,–
55.8,–,COc1nn2cc(-c3cc4c(OCc5csc(-c6ccc(C(=O)N(C)C)cc6)n5)cc5c(c4o3)OCCO5)nc2s1,80.8,–
–,–,COc1nn2cc(-c3cc4ccc5c(c4o3)CCCC5)nc2s1,8.02,–
–,–,COc1nn2cc(-c3cc4c5c(ccc4o3)OCCO5)nc2s1,18.4,–
–,–,COc1nn2cc(-c3cc4ccc5c(c4o3)C=CC(C)(C)O5)nc2s1,2.58,–
18.4,17.1,COc1nn2cc(-c3cc4ccc5c(c4o3)OCCCO5)nc2s1,76.8,–
